US12441736B2, “KIF18A inhibitors” (AMGEN INC., priority 2018, dated 2025)

The molecules below were run against T1, Recombinant human KIF18A (1-467 His-tagged) protein (Homo sapiens, UniProt Q8NI77) (assay: KIF18A Enzyme Assay: microtubule-stimulated ATPase activity (ADP-Glo)). Conditions: 30 nM KIF18A, 30 μg/mL pig microtubules, 75 μM ATP, ADP-Glo luminescence.
T1 construct: Recombinant human KIF18A (1-467 His-tagged) protein; His; made in house
Type: biochemical
How it was run: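 IC50 comes from a four-parameter logistic fit over a 22-point, 2-fold series, with ADP quantified by ADP-Glo luminescence. Reactions ran at room temperature: compound plus 30 nM KIF18A(1-467)-His for 15 min, then 75 μM ATP (Km) for 15 min. The buffer held pig microtubules at 30 μg/mL and 1 μM taxol.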

T1 sequence (Q8NI77 1-467): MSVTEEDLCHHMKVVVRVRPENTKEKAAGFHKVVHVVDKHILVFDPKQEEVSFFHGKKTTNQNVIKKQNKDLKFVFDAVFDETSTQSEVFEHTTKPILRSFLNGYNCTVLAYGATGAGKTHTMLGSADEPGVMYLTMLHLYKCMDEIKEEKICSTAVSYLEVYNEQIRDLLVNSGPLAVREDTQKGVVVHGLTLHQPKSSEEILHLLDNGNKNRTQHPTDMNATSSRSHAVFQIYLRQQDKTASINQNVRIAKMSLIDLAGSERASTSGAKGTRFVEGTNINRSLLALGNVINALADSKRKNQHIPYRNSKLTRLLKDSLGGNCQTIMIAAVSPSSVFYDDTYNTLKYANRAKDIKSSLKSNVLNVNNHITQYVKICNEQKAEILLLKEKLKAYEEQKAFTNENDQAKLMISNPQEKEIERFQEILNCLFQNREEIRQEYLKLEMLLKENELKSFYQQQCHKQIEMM
T1 sequence (P02550 whole entry partner): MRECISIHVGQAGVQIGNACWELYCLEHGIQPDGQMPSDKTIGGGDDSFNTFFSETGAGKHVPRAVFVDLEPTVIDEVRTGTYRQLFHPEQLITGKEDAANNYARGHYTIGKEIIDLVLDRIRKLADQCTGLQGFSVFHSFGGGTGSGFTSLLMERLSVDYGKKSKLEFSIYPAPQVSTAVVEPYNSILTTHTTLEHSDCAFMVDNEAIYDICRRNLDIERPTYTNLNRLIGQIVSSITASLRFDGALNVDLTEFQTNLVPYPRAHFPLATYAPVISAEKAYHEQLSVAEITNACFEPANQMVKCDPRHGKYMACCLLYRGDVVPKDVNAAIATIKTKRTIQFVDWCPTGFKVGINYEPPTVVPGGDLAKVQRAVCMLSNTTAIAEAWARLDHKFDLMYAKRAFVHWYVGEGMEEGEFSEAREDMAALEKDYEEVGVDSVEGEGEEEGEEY
T1 sequence (P02554 whole entry partner): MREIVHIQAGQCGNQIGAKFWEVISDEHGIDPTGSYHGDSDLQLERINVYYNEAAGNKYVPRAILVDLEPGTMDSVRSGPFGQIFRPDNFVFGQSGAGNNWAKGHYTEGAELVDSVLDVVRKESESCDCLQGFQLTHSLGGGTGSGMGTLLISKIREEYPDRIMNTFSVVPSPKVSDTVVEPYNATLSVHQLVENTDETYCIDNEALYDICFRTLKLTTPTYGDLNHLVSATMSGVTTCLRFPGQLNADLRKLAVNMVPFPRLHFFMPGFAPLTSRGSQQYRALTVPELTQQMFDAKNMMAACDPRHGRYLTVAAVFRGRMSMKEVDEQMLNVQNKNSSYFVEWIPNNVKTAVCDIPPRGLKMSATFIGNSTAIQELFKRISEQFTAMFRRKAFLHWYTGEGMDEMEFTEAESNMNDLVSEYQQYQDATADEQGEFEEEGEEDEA

IC50 [nM] | Structure (SMILES)
102 | C[C@@H]1CN(c2cccc(NC(=O)c3ccc(S(=O)(=O)NC(C)(C)C)nc3N3CCC4(CC3)CC4)n2)CCO1 [Example 225, 2-(6-azaspiro[2.5]octan-6-yl)-N-(6-((2R)-2-methyl-4-morpholinyl)-2-pyridinyl)-6-((2-methyl-2-propanyl)sulfamoyl)-3-pyridinecarboxamide]
392 | CC(C)(CO)Nc1ccc(C(=O)Nc2cccc(NCCO)n2)c(N2CCC3(CC2)CC3)n1 [Example 226, 2-(6-azaspiro[2.5]octan-6-yl)-N-(6-((2-hydroxyethyl)amino)-2-pyridinyl)-6-((1-hydroxy-2-methyl-2-propanyl)amino)-3-pyridinecarboxamide]
142 | Cc1cc(NC(=O)c2ccc(NC(C)(C)CO)nc2N2CCC3(CC2)CC3)nc(N2CCC[C@@H](O)C2)c1 [Example 227, 2-(6-azaspiro[2.5]octan-6-yl)-6-((1-hydroxy-2-methyl-2-propanyl)amino)-N-(6-((3R)-3-hydroxy-1-piperidinyl)-4-methyl-2-pyridinyl)-3-pyridinecarboxamide]
69.7 | CC(C)(CO)Nc1ccc(C(=O)Nc2cccc(N3CCC[C@H](O)C3)n2)c(N2CCC3(CC2)CC3)n1 [Example 228, 2-(6-azaspiro[2.5]octan-6-yl)-6-((1-hydroxy-2-methyl-2-propanyl)amino)-N-(6-((3S)-3-hydroxy-1-piperidinyl)-2-pyridinyl)-3-pyridinecarboxamide]
136 | CC1(O)CCCN(c2cccc(NC(=O)c3ccc(NC(C)(C)CO)nc3N3CCC4(CC3)CC4)n2)C1 (stereo not drawn) [Example 229, 6-((1-hydroxy-2-methylpropan-2-yl)amino)-N-(6-(3-hydroxy-3-methylpiperidin-l-yl)pyridin-2-yl)-2-(6-azaspiro[2.5]octan-6-yl)nicotinamide]
114 | CC(C)(CO)Nc1ccc(C(=O)Nc2cccc(N3CCCC(O)(CO)C3)n2)c(N2CCC3(CC2)CC3)n1 (stereo not drawn) [Example 230, 6-((1-hydroxy-2-methylpropan-2-yl)amino)-N-(6-(3-hydroxy-3-(hydroxymethyl)piperidin-1-yl)pyridin-2-yl)-2-(6-azaspiro[2.5]octan-6-yl)nicotinamide]
134 | CC(C)(CO)Nc1ccc(C(=O)Nc2cccc(N3CCCC3(C)CO)n2)c(N2CCC3(CC2)CC3)n1 (stereo not drawn) [Example 231, 6-((1-hydroxy-2-methylpropan-2-yl)amino)-N-(6-(2-(hydroxymethyl)-2-methylpyrrolidin-1-yl)pyridin-2-yl)-2-(6-azaspiro[2.5]octan-6-yl)nicotinamide]
948 | CN(C(=O)OC(C)(C)C)C1CCCN(c2cccc(NC(=O)c3ccc(NC(C)(C)CO)nc3N3CCC4(CC3)CC4)n2)C1 (stereo not drawn) [Example 232, tert-butyl (1-(6-(6-((1-hydroxy-2-methylpropan-2-yl)amino)-2-(6-azaspiro[2.5]octan-6-yl)nicotinamido)pyridin-2-yl)piperidin-3-yl)(methyl)carbamate]
999 | CNC1CCCN(c2cccc(NC(=O)c3ccc(NC(C)(C)CO)nc3N3CCC4(CC3)CC4)n2)C1 (stereo not drawn) [Example 233, 6-((1-hydroxy-2-methylpropan-2-yl)amino)-N-(6-(3-(methylamino)piperidin-1-yl)pyridin-2-yl)-2-(6-azaspiro[2.5]octan-6-yl)nicotinamide]
1520 | CC(C)(CO)Nc1ccc(C(=O)Nc2cccc(N3CCCC(NC(=O)OC(C)(C)C)C3)n2)c(N2CCC3(CC2)CC3)n1 (stereo not drawn) [Example 234, tert-butyl (1-(6-(6-((1-hydroxy-2-methylpropan-2-yl)amino)-2-(6-azaspiro[2.5]octan-6-yl)nicotinamido)pyridin-2-yl)piperidin-3-yl)carbamate]
357 | CC(C)(CO)Nc1ccc(C(=O)Nc2cccc(N3CCOC(CN)C3)n2)c(N2CCC3(CC2)CC3)n1 (stereo not drawn) [Example 235, N-(6-(2-(aminomethyl)morpholino)pyridin-2-yl)-6-((1-hydroxy-2-methylpropan-2-yl)amino)-2-(6-azaspiro[2.5]octan-6-yl)nicotinamide]
388 | CC(C)(CO)Nc1ccc(C(=O)Nc2cccc(N3CCCC(N)C3)n2)c(N2CCC3(CC2)CC3)n1 (stereo not drawn) [Example 236, N-(6-(3-aminopiperidin-1-yl)pyridin-2-yl)-6-((1-hydroxy-2-methylpropan-2-yl)amino)-2-(6-azaspiro[2.5]octan-6-yl)nicotinamide]
66.7 | C[C@@H]1CN(c2cccc(NC(=O)c3cnc(NS(=O)(=O)CCO)cc3N3CCC4(CC3)CC4)n2)CCO1 [Example 237]
284 | C[C@@H]1CN(c2cccc(NC(=O)c3ccc(S(C)(=O)=O)nc3N3CCC4(CC3)CC4)n2)CCO1 [Example 238, (R)-N-(6-(2-methylmorpholino)pyridin-2-yl)-6-(methylsulfonyl)-2-(6-azaspiro[2.5]octan-6-yl)nicotinamide]
68.1 | C[C@@H]1CN(c2cccc(NC(=O)c3ccc(CS(C)(=O)=O)nc3N3CCC4(CC3)CC4)n2)CCO1 [Example 239, 2-(6-azaspiro[2.5]octan-6-yl)-N-(6-((2R)-2-methyl-4-morpholinyl)-2-pyridinyl)-6-((methylsulfonyl)methyl)-3-pyridinecarboxamide]
107 | Cc1cc(NC(=O)c2ccc(CS(C)(=O)=O)nc2N2CCC3(CC2)CC3)nc(N2CCOCC2)c1 [Example 240, 2-(6-azaspiro[2.5]octan-6-yl)-N-(4-methyl-6-(4-morpholinyl)-2-pyridinyl)-6-((methylsulfonyl)methyl)-3-pyridinecarboxamide]
101 | CS(=O)(=O)Cc1ccc(C(=O)Nc2cccc(N3CCC[C@@H](O)C3)n2)c(N2CCC3(CC2)CC3)n1 [Example 241, 2-(6-azaspiro[2.5]octan-6-yl)-N-(6-((3R)-3-hydroxy-1-piperidinyl)-2-pyridinyl)-6-((methylsulfonyl)methyl)-3-pyridinecarboxamide]
78.1 | O=C(Nc1cccc(N2CCC[C@@H](O)C2)n1)c1ccc(C(O)(CO)C(F)(F)F)nc1N1CCC2(CC1)CC2 (stereo partly drawn) [Example 242, N-(6-((R)-3-hydroxypiperidin-l-yl)pyridin-2-yl)-2-(6-azaspiro[2.5]octan-6-yl)-6-(1,1,1-trifluoro-2,3-dihydroxypropan-2-yl)nicotinamide]
440 | C[C@@H]1CN(c2cccc(NC(=O)c3cnc(NC(C)(C)CO)cc3N3CCC4(CC3)CC4)n2)CCO1 [Example 243, (R)-6-((1-hydroxy-2-methylpropan-2-yl)amino)-N-(6-(2-methylmorpholino)pyridin-2-yl)-4-(6-azaspiro[2.5]octan-6-yl)nicotinamide]
51.2 | CC(c1ccc(C(=O)Nc2cccc(N3CCO[C@H](C)C3)n2)c(N2CCC3(CC2)CC3)n1)S(C)(=O)=O (stereo partly drawn) [Example 244, N-(6-((R)-2-methylmorpholino)pyridin-2-yl)-6-(1-(methylsulfonyl)ethyl)-2-(6-azaspiro[2.5]octan-6-yl)nicotinamide]
860 | O=C(Nc1cccnc1N1CCC2(CC1)CC2)c1cccc(N2CCOCC2)n1 [Example 245, N-(2-(6-azaspiro[2.5]oct-6-yl)-3-pyridinyl)-6-(4-morpholinyl)-2-pyridinecarboxamide]
292 | CC(O)(c1ccc(NC(=O)c2cccc(N3CCOCC3)n2)c(N2CCC3(CC2)CC3)n1)C(F)(F)F (stereo not drawn) [Example 246, N-(2-(6-Azaspiro[2.5]octan-6-yl)-6-(1,1,1-trifluoro-2-hydroxypropan-2-yl)pyridin-3-yl)-6-morpholinopicolinamide]
89.1 | C[C@@H]1CN(c2nc(NC(=O)c3ccc(NC(C)(C)CO)nc3N3CCC4(CC3)CC4)ccc2F)CCO1 [Example 247, 2-(6-azaspiro[2.5]octan-6-yl)-N-(5-fluoro-6-((2R)-2-methyl-4-morpholinyl)-2-pyridinyl)-6-((1-hydroxy-2-methyl-2-propanyl)amino)-3-pyridinecarboxamide]
16 | O=C(Nc1ccc(NS(=O)(=O)CCO)cc1N1CCC2(CC1)CC2)c1cccc(N2CCC(F)(F)CC2)n1 [Example 248, 6-(4,4-difluoropiperidin-1-yl)-N-(4-((2-hydroxyethyl)sulfonamido)-2-(6-azaspiro[2.5]octan-6-yl)phenyl)picolinamide]
